According to patent EP4631963A1, “PEPTIDE FOR CARTILAGE REGENERATION, AND USES THEREOF” (Caregen Co., Ltd., priority 2022, dated 2024):
Where a SMILES comes first, the peptide text is derived from it. Where no end group is shown, it is not given here.

System: C28/I2, human chondrocyte cell line
Test: CCK-8 cytotoxicity assay
Assay type: cell-based
Conditions: C28/I2 cells, different concentrations, 3 days, 450 nm; FIG. 1, FIG. 2
Procedure: The cytotoxicity of Peptide-1 or Peptide-2 upon addition to human-derived chondrocytes (C28/I2, human chondrocyte cell line) was analyzed using a CCK-8 assay.
Specifically, human-derived chondrocytes were seeded in a 96-well plate at a density of 3 × 10^3 cells/well and cultured in DMEM medium (cat. 11995-065, Gibco) for 24 hours.

Compound	toxicity in human-derived chondrocytes (CCK-8 activity)
CC(C)C[C@H](NC(=O)[C@@H](NC(=O)[C@@H](N)CCCNC(=N)N)[C@@H](C)O)C(=O)N[C@@H](CCC(=O)O)C(=O)O [Peptide-2, RTLE] (H-RTLE-OH)	did not exhibit toxicity
HHEERY [Peptide-1, HHEERY]	did not exhibit toxicity
